Source: patent publication US12622915B2, “Methods of treating PDE IV-mediated diseases or conditions” (Vanda Pharmaceuticals Inc., priority 2020, dated 2026)

Tests used:
Type in all cases: biochemical
Phosphodiesterase PDE4D2 = molecular target: T1, Phosphodiesterase PDE4D2 (Homo sapiens, UniProt Q08499); assay: Phosphodiesterase PDE4D2 enzyme assay
T1 construct: host or cells: insect Sf9 cells
Protocol: Roliprami is used as a reference standard.
PDE4 assays are performed using methods adapted from the literature. See Houslay MD (2005) The long and short of vascular smooth muscle phosphodiesterase-4 as a putative therapeutic target. Mol Pharmacol. 68(3):563-567; MacKenzie S J and Houslay M D (2000) Action of rolipram on specific PDE4 cAMP phosphodiesterase isoforms and on the phosphorylation of cAMP-response element-binding protein (CREB) and p38 mitogen-activated protein (MAP) kinase in U937 monocytic cells. Biochem J. 347(Pt 2): 571-578.
Phosphodiesterase PDE4D2: • Source: Human recombinant insect Sf9 cells • Substrate: 0.10 μM FAM-cAMP • Vehicle: 1.00% DMSO • Significance Crit.: ≥50% of max stimulation or inhibition • Incubation Buffer: 10 mM Tris-HCl, pH 7.2, 10 mM MgCl2, 0.05% NaN3, 0.1% phosphate-free BSA • Quantitation Method: Quantitation of Fluorescein-AMP-IMAP • Pre-Incub. Time/Temp: 15 minutes @25° C. • Incubation Time/Temp: 15 minutes @25° C.
IC50 values are determined by a non-linear, least squares regression analysis using MathIQ™ (ID Business Solutions Ltd., UK). Where inhibition constants (Ki) are presented, the Ki values are calculated using the equation of Cheng and Prusoff (Cheng, Y., Prusoff, W.H., Biochem. Pharmacol. 22:3099-3108, 1973) using the observed IC50 of the tested compound, the concentration of radioligand employed in the assay, and the historical values for the KD of the ligand (obtained experimentally at Eurofins Panlabs, Inc.). Where presented, the Hill coefficient (nH), defining the slope of the competitive binding curve, is calculated using MathIQ™. […] Where IC50, Ki, and/or nH data are presented without Standard Error of the Mean (SEM), data are insufficient to be quantitative, and the values presented (Ki, IC50, nH) are interpreted with caution.

Phosphodiesterase PDE5A = molecular target: T2, Phosphodiesterase PDE5A (Homo sapiens, UniProt O76074); assay: Phosphodiesterase PDE5A enzyme assay; conditions: N=2, Example 3
T2 construct: host or cells: insect Sf9 cells
From the text: (§1) Reference standards are run as an integral part of each assay to ensure the validity of the results obtained. Reference Compounds: • Phosphodiesterase PDE10A2 Papaverine • Phosphodiesterase PDE11A4 Dipyridamole • Phosphodiesterase PDE1A MMPX • Phosphodiesterase PDE2A EHNA • Phosphodiesterase PDE3A Cilostamide • Phosphodiesterase PDE4A1A Rolipram • Phosphodiesterase PDE4B1 Rolipram • Phosphodiesterase PDE5A Zaprinast • Phosphodiesterase PDE6 Zaprinast • Phosphodiesterase PDE7A IBMX • Phosphodiesterase PDE7B IBMX • Phosphodiesterase PDE8A1 Dipyridamole • Phosphodiesterase PDE9A2 Zaprinast
Phosphodiesterase PDE1A; Phosphodiesterase PDE5A; and Phosphodiesterase PDE9A2: • Source: Human recombinant insect Sf9 cells • Substrate: 0.10 μM […] • Vehicle: 1.00% DMSO • Significance Crit.: ≥50% of max stimulation or inhibition • Incubation Buffer: 10 mM Tris-HCl, pH 7.2, 10 mM MgCl2, 0.05% NaN3, 0.1% phosphate-free BSA • Quantitation Method: Quantitation of Fluorescein-GMP-IMAP • Pre-Incub. Time/Temp: 15 minutes @25° C. • Incubation Time/Temp: 30 minutes @25° C.
IC50 values are determined by a non-linear, least squares regression analysis using MathIQ™ (ID Business Solutions Ltd., UK). […] Where presented, the Hill coefficient (nH), defining the slope of the competitive binding curve, is calculated using MathIQ™. […]

Phosphodiesterase PDE2A = molecular target: T3, Phosphodiesterase PDE2A (Homo sapiens, UniProt O00408); assay: Phosphodiesterase PDE2A enzyme assay; conditions: N=2, Example 3
T3 construct: host or cells: insect Sf9 cells
From the text: as §1
Phosphodiesterase PDE4A1A; Phosphodiesterase PDE4B1; Phosphodiesterase PDE10A2; Phosphodiesterase PDE11A4; Phosphodiesterase PDE2A; Phosphodiesterase PDE3A; Phosphodiesterase PDE7A; Phosphodiesterase PDE7B; and Phosphodiesterase PDE8A1: • Source: Human recombinant insect Sf9 cells • Substrate: 0.10 μM FAM-cAMP • Vehicle: 1.00% DMSO • Significance Crit.: ≥50% of max stimulation or inhibition • Incubation Buffer: 10 mM Tris-HCl, pH 7.2, 10 mM MgCl2, 0.05% NaN3, 0.1% phosphate-free BSA • Quantitation Method: Quantitation of Fluorescein-AMP-IMAP • Pre-Incub. Time/Temp: 15 minutes @25° C. • Incubation Time/Temp: 30 minutes @25° C.
IC50 values are determined by a non-linear, least squares regression analysis using MathIQ™ (ID Business Solutions Ltd., UK). […]

T1 sequence (Q08499 303-809 limits assumed): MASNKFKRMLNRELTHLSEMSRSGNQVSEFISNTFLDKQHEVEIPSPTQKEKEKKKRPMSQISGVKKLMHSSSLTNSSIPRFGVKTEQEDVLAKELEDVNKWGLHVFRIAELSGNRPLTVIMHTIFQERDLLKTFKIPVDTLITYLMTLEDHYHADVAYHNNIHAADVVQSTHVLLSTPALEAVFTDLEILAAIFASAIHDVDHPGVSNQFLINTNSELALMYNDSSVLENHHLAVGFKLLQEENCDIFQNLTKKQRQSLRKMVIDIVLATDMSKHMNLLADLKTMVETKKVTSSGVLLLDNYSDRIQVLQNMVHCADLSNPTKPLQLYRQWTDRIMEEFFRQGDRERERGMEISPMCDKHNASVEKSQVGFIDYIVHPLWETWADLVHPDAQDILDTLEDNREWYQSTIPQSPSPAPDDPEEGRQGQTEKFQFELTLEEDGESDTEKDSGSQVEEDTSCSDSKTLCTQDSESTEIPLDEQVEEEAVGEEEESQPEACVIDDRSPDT
T3 sequence (O00408 whole entry): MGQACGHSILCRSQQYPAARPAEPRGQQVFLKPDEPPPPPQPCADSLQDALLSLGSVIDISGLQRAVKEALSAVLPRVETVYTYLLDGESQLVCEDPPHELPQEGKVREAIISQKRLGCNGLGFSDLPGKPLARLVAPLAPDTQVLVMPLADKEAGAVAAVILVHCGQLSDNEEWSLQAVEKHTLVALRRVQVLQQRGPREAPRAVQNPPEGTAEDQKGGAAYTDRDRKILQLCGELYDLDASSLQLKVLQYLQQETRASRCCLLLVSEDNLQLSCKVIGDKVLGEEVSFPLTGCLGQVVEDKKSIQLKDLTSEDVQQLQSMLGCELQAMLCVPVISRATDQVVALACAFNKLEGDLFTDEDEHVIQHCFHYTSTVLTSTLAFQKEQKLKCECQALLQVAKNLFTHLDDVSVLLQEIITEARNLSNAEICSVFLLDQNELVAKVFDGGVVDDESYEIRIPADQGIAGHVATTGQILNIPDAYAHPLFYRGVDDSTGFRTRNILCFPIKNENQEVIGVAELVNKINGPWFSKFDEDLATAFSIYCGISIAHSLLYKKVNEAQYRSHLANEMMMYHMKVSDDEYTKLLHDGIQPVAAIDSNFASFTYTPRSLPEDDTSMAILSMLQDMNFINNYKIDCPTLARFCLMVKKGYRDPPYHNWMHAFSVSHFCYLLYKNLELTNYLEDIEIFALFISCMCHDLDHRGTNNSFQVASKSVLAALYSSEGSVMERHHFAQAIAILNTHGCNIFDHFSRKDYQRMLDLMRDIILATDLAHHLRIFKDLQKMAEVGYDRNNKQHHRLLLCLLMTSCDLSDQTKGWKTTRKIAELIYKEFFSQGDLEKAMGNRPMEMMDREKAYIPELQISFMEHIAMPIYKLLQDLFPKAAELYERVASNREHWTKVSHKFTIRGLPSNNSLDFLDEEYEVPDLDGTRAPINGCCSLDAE

In the case of `CNc1nc(Nc2ccccc2)nc(OCC(F)(F)C(F)F)n1` [compound of Formula (I), N^2-methyl-N^4-phenyl-6-(2,2,3,3-tetrafluoropropoxy)-1,3,5-triazine-2,4-diamine], the inhibition at 0.03 µM (Phosphodiesterase PDE4D2; 0.03 μM, N=2, Example 5) is reported as 70%, the inhibition at 0.1 µM (Phosphodiesterase PDE4D2; 0.1 μM, N=2, Example 5) is reported as 83% and the inhibition at 0.3 µM (Phosphodiesterase PDE4D2; 0.3 μM, N=2, Example 5) is reported as 91%. For the same compound, the inhibition at 1 µM (Phosphodiesterase PDE4D2; 1 μM, N=2, Example 5) was 96%, the inhibition at 3 µM (Phosphodiesterase PDE4D2; 3 μM, N=2, Example 5) was 97% and the inhibition at 10 µM (Phosphodiesterase PDE4D2; 10 μM (first line, r2), N=2, Example 5) was 99%. It also gave an IC50 (Phosphodiesterase PDE4D2; Example 5) of 6.19 nM, an inhibition at 10 µM (Phosphodiesterase PDE5A) of 27% and an inhibition at 10 µM (Phosphodiesterase PDE2A) of 9%.
